The target in assay [1] is T1, recombinant HIV-1 protease (Human immunodeficiency virus type 1 group M subtype B, UniProt P04585).
T1 construct: 10.5 nM HIV-1 protease
Nature of the assay: Measurement of HIV protease inhibitory activity. Format: biochemical. Particulars: 50 nM compound; 10.5 nM HIV-1 protease, pH 6.5, 37° C., 60 minutes. The procedure: Measurement of HIV protease inhibitory activity
The protease inhibitory activity was measured according to the method reported by T. Mimoto et al., J. Med. Chem., 42, 1789-1802 (1999) by using a recombinant HIV-1 protease (see Biochemistry, 250, 9, 264 (1990)) and a synthesized peptide substrate (H-Ser-Gln-Asn-Tyr-Pro-Ile-Val-OH). Specifically, reaction solutions (15 μl each) containing any one of the compounds synthesized in the above Examples 1-15 and Reference Examples 1-4, an inhibitor in which a known anti-AIDS agent (nelfinavir) is dissolved in DMSO in different concentrations, 10.5 nM HIV-1 protease, 20 mM synthesized peptide substrate, and 100 mM MES buffer solution (pH 6.5) were incubated at 37° C. for 60 minutes. Peptide fragments produced by cleaving the Tyr-Pro bonds in the synthesized peptide substrate was quantitatively measured by reverse phase HPLC.

For assay [2], the system named is HIV virus (HIV-1 IIIB strain). Nature of the assay: Measurement of anti-HIV activity (cytopathic effect, XTT) in CEM-SS cells. Format: cell-based. Particulars: 6 days, in the presence of 50% human plasma. The procedure: Measurement of anti-HIV activity
The anti-HIV activity of the compounds synthesized Examples 1-15 and Reference Examples 1-4 was measured according to the method reported by 0. S. Weislow et al. (J. Natl. Cancer Inst. 81, 577-586, 1989) using CEM-SS cells as host cells and HIV virus (HIV-1 IIIB strain)(see T. Mimoto et al., J. Med. Chem., 42, 1789-1802, 1999, etc.).
Specifically, the compounds synthesized Examples 1-15 and […] in various concentrations were added to a culture medium on 96-well microtiter plates. Human blood serum was added to a final concentration of 50%, then HIV infected CEM-SS cells was added, followed by incubation in a CO2 atmosphere at 37° C. for 6 days. The cytopathic effect induced by HIV-1 IIIB was measured by tetrazolium dye XTT dyeing method to evaluate the 50% inhibitory concentration (IC50).
In general terms: Damage to the host cells serves as the signal in cytopathic effect assays.

For the compound `Cc1ccc(C[C@H](NC(=O)c2cccc(O)c2C)[C@H](O)C(=O)N2CSC(C)(C)[C@H]2C(=O)NCc2ccccc2C)cc1` [Ex. 9, (R)-N-(2-methylbenzyl)-3-[(2S,3S)-2-hydroxy-3-(3-hydroxy-2-methylbenzoyl)amino-4-(4-metylphenyl)butanoyl]-5,5-dimethyl-1,3-thiazolidine-4-carboxamide], the “HIV protease inhibition rate (%) at 50 nM” value in assay [1] stood at 97%. In addition, the “Anti-HIV IC50” value in assay [2] worked out at 0.02 µg/mL.
